Test results from patent US20210095322A1, “HIGH-PURITY STEVIOL GLYCOSIDES” (PureCircle USA Inc., priority 2018, published 2021).

What was measured:
[1] = FEMA GRAS publication; cited from earlier work
[2] = Isosweet determination (2-AFC) vs sucrose in acidified water, sweetness potency; assay type: in vivo, human; settings: pH = 3.2
Experimental: As an example, Reb AM was evaluated.

[3] = aqueous solution; Ref: Celaya et al (2016); cited from earlier work

| SMILES | Sweetness Perception Threshold Concentration [1] [ppm] | Sweetness Equivalent (ppm) in Water ([2]; 2.5% SE) [ppm] | Sweetness Potency in Water ([2]; 2.5% SE) [x sugar equivalent] | Sweetness Equivalent (ppm) in Water ([2]; 5.0% SE) [ppm] | Sweetness Potency in Water ([2]; 5.0% SE) [x sugar equivalent] | Solubility [3] [%] |
| --- | --- | --- | --- | --- | --- | --- |
| C=C1C[C@@]23CC[C@H]4[C@@](C)(CCC[C@@]4(C)C(=O)O[C@@H]4O[C@H](CO)[C@@H](O)[C@H](O)[C@H]4O)[C@@H]2CC[C@]1(O[C@@H]1O[C@H](CO)[C@@H](O)[C@H](O[C@@H]2O[C@H](CO)[C@@H](O)[C@H](O)[C@H]2O)[C@H]1O[C@@H]1O[C@H](CO)[C@@H](O)[C@H](O)[C@H]1O)C3 [Reb A, rebaudioside A] | 30 | 94 | 266 | 299 | 167 | <0.7 |
| C=C1C[C@@]23CC[C@H]4[C@@](C)(CCC[C@@]4(C)C(=O)O[C@@H]4O[C@H](CO)[C@@H](O)[C@H](O)[C@H]4O)[C@@H]2CC[C@]1(O[C@@H]1O[C@H](CO)[C@@H](O)[C@H](O)[C@H]1O[C@@H]1O[C@H](CO)[C@@H](O)[C@H](O)[C@H]1O)C3 [Stevioside, stevioside] |  |  |  |  |  | <0.7 |
